In US11318182B1, “Plant extract for skin infections” (priority 2021, dated 2022):

Experiments:
Type in all cases: cell-based
Conditions in all cases: plant extract 29 μg/ml
[1] = test system: Aspergillus niger; assay: Growth inhibition zone on Sabouraud dextrose agar
Protocol: (§1) In the preferred embodiment, grinded garlic, ginger, papaya seed, clover bud, tamarind and the coconut oil components are extracted by 95% ethanol and kept in dark four days at room temperature. The extracted homogenous texture is filtered through Whatman filter paper no. 1 by using Thermo Scientific Vacuum USA. The filtered extract pH is adjusted to 5.6. A drop of Lavender is added to the final concentration and the extract is refrigerated in sealed, amber-colored bottles at 4° C. after the concentration is determined. […], Penicillium notatum, and Aspergillus niger used as fungal species. Known isolates of Escherichia coli, Bacillus serous and Staphylococcus aureus used as bacterial species. Sabouraud dextrose agar (SDA) medium and Nutrient agar plates (NAP) used to confirm in vitro inhibition of the fungus and bacteria in 24, 48 and 72 hours at room temperature and 37° C. respectively. The antimicrobial activity of plant-extract specified by the formation of an inhibition zone is measured by using Vernier calipers. Also, 28 individuals evaluated after using the mixed plant-extract within two weeks trial controlling fungal and bacterial infections of the skin. […] Staphylococcus aureus, Bacillus cereus and Escherichia coli grown on nutrient agar (NA). Aspergillus niger, Penicillium notatum and […] tested fungal species grown on Sabouraud dextrose agar (SDA). […] The SDA and NA plates were filled with 20 ml of media and solidified in 24 hours at 37° C. incubator before inoculation of the of the microorganisms and the products to be tested.

[2] = test system: Serratia marcescens; assay: Growth inhibition zone on Sabouraud dextrose agar
Protocol: as §1

[3] = test system: Penicillium notatum; assay: Growth inhibition zone on Sabouraud dextrose agar
Protocol: as §1

[4] = test system: Staphylococcus aureus; assay: Growth inhibition zone on nutrient agar
Protocol: as §1

[5] = test system: Bacillus cereus; assay: Growth inhibition zone on nutrient agar
Protocol: as §1

[6] = test system: Escherichia coli; assay: Growth inhibition zone on nutrient agar
Protocol: as §1

Row | Compound | Growth inhibition by mm, A. niger [1] [mm] | Growth inhibition by mm, S. marcescens [2] [mm] | Growth inhibition by mm, P. notatum [3] [mm] | Growth inhibition by mm, S. Aureus [4] [mm] | Growth inhibition by mm, B. cereus [5] [mm] | Growth inhibition by mm, E. coli [6] [mm]
1 | Clc1ccccc1C(c1ccccc1)(c1ccccc1)n1ccnc1 [Clotrimazole 1%, clotrimazole] | 1.8 | 1.8 | 2.1 | 1.2 | 1 | 2.2
2 | CN(C)[C@@H]1C(O)=C(C(N)=O)C(=O)[C@@]2(O)C(O)=C3C(=O)c4c(O)cccc4[C@@](C)(O)[C@H]3C[C@@H]12 [Tetracycline] | 0.8 | 0.7 | 0.7 | 1.3 | 1.3 | 1.2
3 | C=CCCCCCCCCC(=O)O [Undecycleric add 25%, undecylenic acid] | 1.9 | 1.7 | 1.6 | 1.1 | 1.1 | 1.2
4 | Penicillin | 1.7 | 1.6 | 1.4 | 1.9 | 1.9 | 2.5
